From patent US20210046061A1, “METHODS AND COMPOSITIONS FOR TREATING HERPESVIRUS INDUCED CONDITIONS” (TRUSTEES OF BOSTON UNIVERSITY, priority 2015, published 2021)

Tests used:
[1] = tested on: viral TK (EBV thymidine kinase) transcript in P3HR1 cells; experiment: Thymidine kinase (TK) mRNA expression assay, quantitative real-time RT-PCR; assay type: cell-based, human; conditions: 24 hrs exposure, mRNA by RT-PCR
Description: (§1) To measure whether Chidamide could induce EBV associated transcripts, the induction of mRNA for the protein kinases TK (FIG. 1A) and BGLF4 (FIG. 1B) in EBV-positive lymphoma cell lines was measured after exposure to different concentrations of the short-chain fatty acid, sodium butyrate (NaB), or the benzamide, chidamide (chid), for 24 hrs. Transcripts were quantitated by quantitative real-time RT-PCR.
(§2) The EBV-positive B lymphoma cell line P3HR1 was used in the study. The P3HR1 cell line was originally derived from Burkitt's lymphoma patient. EBV maintains a latent state of replication in this cell line. These cells were maintained in RPMI 1640 with 10% fetal bovine serum containing 100 U penicillin per ml and 100 μg streptomycin per ml.
(§3) P3HR1 cells were seeded in 60 mm plates containing 3×10^6 cells in 3 ml of fresh growth media. Appropriate concentrations of HDAC inhibitors were added to the plate and cells were incubated in the presence of HDAC inhibitors for 6 h, 24 h, 48 h, or as needed. Cells were harvested by centrifugation and washed once in cold PBS. Total cellular RNA was then extracted. To measure the relative level of TK mRNA in various total RNA preparations, reverse transcription and quantitative PCR using real time PCR analysis were used. […] The relative level of TK expression in a sample was calculated following normalization of β-actin expression level.

[2] = tested on: BGLF4 (EBV-PK) transcript in P3HR1 cells; experiment: Protein kinase (BGLF4) mRNA expression assay, quantitative real-time RT-PCR; assay type: cell-based, human; conditions: 24 hrs exposure, mRNA by RT-PCR
Description: as §1, §2, §3

[3] = tested on: EBV-positive B lymphoma cell line P3HR1; experiment: Drug sensitivity assay: HDAC inhibitor plus ganciclovir, viable cell count by trypan blue; assay type: cell-based, human; conditions: both combined with ganciclovir; living cells counted on day 6
Description: To determine tumor cytotoxic activity of the combination of HDACi and GCV, EBV+ lymphoma cells were exposed to a range of concentrations of sodium butyrate or chidamide […] for 3 days and then to GCV alone for another 3 days (FIG. 1C). Efficacy of either sodium butyrate or chidamide in the combination treatment approach was then determined by enumerating living cells. A general experimental protocol is described below.
as §2
To test the sensitivity of EBV-positive lymphoma cells towards chidamide, P3HR1 cells were treated with chidamide in the presence of one anti-viral drug. At the end of the assay, the efficacy of chidamide was assessed by measuring the inhibition of cell growth compared to untreated cells.
Healthy, actively-growing P3HR1 cells were harvested and resuspended in fresh growth media. Cells were seeded in wells. […] On day 6, cell morphology was observed under a microscope and viable cell counts in each individual well was determined by the trypan blue dye exclusion method using an automated cell counter (Countess, Invitrogen).

CMV = CMV viral load in patient with post-transplant EBV positive lymphoma; assay type: in vivo, human; conditions: one patient; arginine butyrate and daily ganciclovir; after 3 weeks of treatment; before treatment (Week 1) 12,300
Description: (§4) Levels were determined before treatment (week1) and after 3 weeks of treatment (week 3).

EBV = EBV viral load in patient with post-transplant EBV positive lymphoma; assay type: in vivo, human; conditions: one patient; arginine butyrate and daily ganciclovir; after 3 weeks of treatment; before treatment (Week 1) 27,782
Description: as §4

[4] = tested on: relapsed or refractory EBV-positive lymphoid tumors; conditions: arginine butyrate and GCV; of 15 patients; cited from earlier work
HHV-6 = HHV-6 viral load in patient with post-transplant EBV positive lymphoma; assay type: in vivo, human; conditions: one patient; arginine butyrate and daily ganciclovir; after 3 weeks of treatment; before treatment (Week 1) 658,882
Description: as §4

Compound	concentration at which induction of viral TK expression begins [1] [nM]	concentration at which induction of BGLF4 expression begins [2] [nM]	concentration of chidamide as good in killing as 1.0 mM sodium butyrate [3]	CMV viral load, Week 3 (CMV)	EBV viral load, Week 3 (EBV)	patients who achieved complete tumor remissions [4] [patients]	patients who achieved partial tumor remissions [4] [patients]	HHV-6 viral load, Week 3 (HHV-6) [Copies per mL]
Nc1cc(F)ccc1NC(=O)c1ccc(CNC(=O)/C=C/c2cccnc2)cc1 [chidamide]	500	500	104					
arginine butyrate				1,600 Copies per mL	1,486 Copies per mL	4	6	805
